Measurements as given in PubChem BioAssay AID1918940 (Molecular Pharmacology Branch, DTP, NCI, 2023).

Tested on: NCI-H211 complex spheroid viability
Experiment: Anticancer human tumor NCI-H211 cell line growth inhibition [LSD1];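 note: luminescent viability read after seven days of drug exposure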;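 for viability, T/C: 100% = DMSO vehicle control viability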
Details: for IC50: curve of first compound; for viability, T/C: stronger effect = lower value
In short: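 Drug combinations with the LSD1 inhibitor iadademstat tested on tumor cells co-cultured as spheroids with endothelial cells and mesenchymal stem cells. Concentrations descended in half-log increments from clinical Cmax or 10 microM.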

[1] = second compound 0.1 µM, first compound 0.0316 µM
[2] = second compound 0.1 µM, first compound 0.1 µM
[3] = second compound 0.1 µM, first compound 0.316 µM
[4] = second compound 0.1 µM, first compound 1 µM
[5] = second compound 0.1 µM, first compound 3.16 µM
[6] = second compound 0.1 µM, first compound 10 µM
[7] = second compound 0.316 µM, first compound 0.0316 µM
[8] = second compound 0.316 µM, first compound 0.1 µM
[9] = second compound 0.316 µM, first compound 0.316 µM
[10] = second compound 0.316 µM, first compound 1 µM
[11] = second compound 0.316 µM, first compound 3.16 µM
[12] = second compound 0.316 µM, first compound 10 µM
[13] = second compound 1 µM, first compound 0.0316 µM
[14] = second compound 1 µM, first compound 0.1 µM
[15] = second compound 1 µM, first compound 0.316 µM
[16] = second compound 1 µM, first compound 1 µM
[17] = second compound 1 µM, first compound 3.16 µM
[18] = second compound 1 µM, first compound 10 µM
[19] = second compound 3.16 µM, first compound 0.0316 µM
[20] = second compound 3.16 µM, first compound 0.1 µM
[21] = second compound 3.16 µM, first compound 0.316 µM
[22] = second compound 3.16 µM, first compound 1 µM
[23] = second compound 3.16 µM, first compound 3.16 µM
[24] = second compound 3.16 µM, first compound 10 µM
[25] = second compound 10 µM, first compound 0.0316 µM
[26] = second compound 10 µM, first compound 0.1 µM
[27] = second compound 10 µM, first compound 0.316 µM
[28] = second compound 10 µM, first compound 1 µM
[29] = second compound 10 µM, first compound 3.16 µM
[30] = second compound 10 µM, first compound 10 µM
[31] = second compound 0.1 µM, first compound 0.00949 µM
[32] = second compound 0.1 µM, first compound 0.03 µM
[33] = second compound 0.1 µM, first compound 0.0949 µM
[34] = second compound 0.1 µM, first compound 0.3 µM
[35] = second compound 0.316 µM, first compound 0.00949 µM
[36] = second compound 0.316 µM, first compound 0.03 µM
[37] = second compound 0.316 µM, first compound 0.0949 µM
[38] = second compound 0.316 µM, first compound 0.3 µM
[39] = second compound 1 µM, first compound 0.00949 µM
[40] = second compound 1 µM, first compound 0.03 µM
[41] = second compound 1 µM, first compound 0.0949 µM
[42] = second compound 1 µM, first compound 0.3 µM
[43] = second compound 3.16 µM, first compound 0.00949 µM
[44] = second compound 3.16 µM, first compound 0.03 µM
[45] = second compound 3.16 µM, first compound 0.0949 µM
[46] = second compound 3.16 µM, first compound 0.3 µM
[47] = second compound 10 µM, first compound 0.00949 µM
[48] = second compound 10 µM, first compound 0.03 µM
[49] = second compound 10 µM, first compound 0.0949 µM
[50] = second compound 10 µM, first compound 0.3 µM

CC1(C)CCC(CN2CCN(c3ccc(C(=O)NS(=O)(=O)c4ccc(NCC5CCOCC5)c([N+](=O)[O-])c4)c(Oc4cnc5[nH]ccc5c4)c3)CC2)=C(c2ccc(Cl)cc2)C1 + NC1CC1c1ccc(-c2cccc(O)c2)cc1
IC50 (second compound 0.1 µM): < 31.6 nM
IC50 (second compound 0.316 µM): < 31.6 nM
IC50 (second compound 1 µM): < 31.6 nM
IC50 (second compound 3.16 µM): < 31.6 nM
IC50 (second compound 10 µM): < 31.6 nM
viability, T/C [1]: 43.8%
viability, T/C [2]: 38.7%
viability, T/C [3]: 35%
viability, T/C [4]: 53.4%
viability, T/C [5]: 100%
viability, T/C [6]: 52.7%
viability, T/C [7]: 36.8%
viability, T/C [8]: 37.9%
viability, T/C [9]: 37.2%
viability, T/C [10]: 53.2%
viability, T/C [11]: 100%
viability, T/C [12]: 65.1%
viability, T/C [13]: 27.5%
viability, T/C [14]: 47.8%
viability, T/C [15]: 26.1%
viability, T/C [16]: 44.5%
viability, T/C [17]: 90.8%
viability, T/C [18]: 55%
viability, T/C [19]: 32.1%
viability, T/C [20]: 28.1%
viability, T/C [21]: 29.8%
viability, T/C [22]: 30.8%
viability, T/C [23]: 58.9%
viability, T/C [24]: 46.2%
viability, T/C [25]: 32.7%
viability, T/C [26]: 26.2%
viability, T/C [27]: 21.2%
viability, T/C [28]: 28.2%
viability, T/C [29]: 30.5%
viability, T/C [30]: 21%

CC1COCCN1c1cc(C2(S(C)(=N)=O)CC2)nc(-c2ccnc3[nH]ccc23)n1 (stereo not given) + NC1CC1c1ccc(-c2cccc(O)c2)cc1
IC50 (second compound 0.1 µM): 258 nM
IC50 (second compound 0.316 µM): 264 nM
IC50 (second compound 1 µM): 381 nM
IC50 (second compound 3.16 µM): 317 nM
IC50 (second compound 10 µM): 115 nM
viability, T/C [1]: 89.3%
viability, T/C [2]: 68.7%
viability, T/C [3]: 48.5%
viability, T/C [4]: 19.1%
viability, T/C [5]: 4.67%
viability, T/C [6]: 2.73%
viability, T/C [7]: 85.4%
viability, T/C [8]: 72.9%
viability, T/C [9]: 46.9%
viability, T/C [10]: 13.5%
viability, T/C [11]: 5.02%
viability, T/C [12]: 2.53%
viability, T/C [13]: 74.2%
viability, T/C [14]: 64.3%
viability, T/C [15]: 57.5%
viability, T/C [16]: 15%
viability, T/C [17]: 5.48%
viability, T/C [18]: 3.11%
viability, T/C [19]: 69.6%
viability, T/C [20]: 73.2%
viability, T/C [21]: 48.8%
viability, T/C [22]: 16.3%
viability, T/C [23]: 5.24%
viability, T/C [24]: 3%
viability, T/C [25]: 65.7%
viability, T/C [26]: 51.6%
viability, T/C [27]: 33.1%
viability, T/C [28]: 14.5%
viability, T/C [29]: 5.1%
viability, T/C [30]: 3.28%

CCN(c1cc(-c2ccc(CN3CCOCC3)cc2)cc(C(=O)NCc2c(C)cc(C)[nH]c2=O)c1C)C1CCOCC1 + NC1CC1c1ccc(-c2cccc(O)c2)cc1
IC50 (second compound 0.1 µM): 205 nM
IC50 (second compound 0.316 µM): 69.4 nM
IC50 (second compound 1 µM): 114 nM
IC50 (second compound 3.16 µM): 127 nM
IC50 (second compound 10 µM): 139 nM
viability, T/C [31]: 74.4%
viability, T/C [32]: 62.2%
viability, T/C [33]: 61.3%
viability, T/C [34]: 43.7%
viability, T/C (second compound 0.1 µM, first compound 0.949 µM): 41%
viability, T/C (second compound 0.1 µM, first compound 3 µM): 40.9%
viability, T/C [35]: 84%
viability, T/C [36]: 67.3%
viability, T/C [37]: 42.7%
viability, T/C [38]: 48.8%
viability, T/C (second compound 0.316 µM, first compound 0.949 µM): 46.5%
viability, T/C (second compound 0.316 µM, first compound 3 µM): 36.3%
viability, T/C [39]: 83.4%
viability, T/C [40]: 48.5%
viability, T/C [41]: 65.8%
viability, T/C [42]: 38.1%
viability, T/C (second compound 1 µM, first compound 0.949 µM): 38.4%
viability, T/C (second compound 1 µM, first compound 3 µM): 30.3%
viability, T/C [43]: 79.3%
viability, T/C [44]: 58.7%
viability, T/C [45]: 50.5%
viability, T/C [46]: 46.3%
viability, T/C (second compound 3.16 µM, first compound 0.949 µM): 38.8%
viability, T/C (second compound 3.16 µM, first compound 3 µM): 27.4%
viability, T/C [47]: 70.3%
viability, T/C [48]: 58.6%
viability, T/C [49]: 46.6%
viability, T/C [50]: 51.7%
viability, T/C (second compound 10 µM, first compound 0.949 µM): 40.8%
viability, T/C (second compound 10 µM, first compound 3 µM): 32.1%

Cn1ncnc1C1c2n[nH]c(=O)c3cc(F)cc(c23)NC1c1ccc(F)cc1 (stereo not given) + NC1CC1c1ccc(-c2cccc(O)c2)cc1
IC50 (second compound 0.1 µM): 1.85 nM
IC50 (second compound 0.316 µM): 1.66 nM
IC50 (second compound 1 µM): 1.05 nM
IC50 (second compound 3.16 µM): 1.08 nM
IC50 (second compound 10 µM): 1.02 nM
viability, T/C (second compound 0.1 µM, first compound 0.000316 µM): 64.8%
viability, T/C (second compound 0.1 µM, first compound 0.001 µM): 65.8%
viability, T/C (second compound 0.1 µM, first compound 0.00316 µM): 36.7%
viability, T/C (second compound 0.1 µM, first compound 0.01 µM): 6.78%
viability, T/C [1]: 5.16%
viability, T/C [2]: 5.28%
viability, T/C (second compound 0.316 µM, first compound 0.000316 µM): 79.3%
viability, T/C (second compound 0.316 µM, first compound 0.001 µM): 66.8%
viability, T/C (second compound 0.316 µM, first compound 0.00316 µM): 28.5%
viability, T/C (second compound 0.316 µM, first compound 0.01 µM): 6.02%
viability, T/C [7]: 5.46%
viability, T/C [8]: 4.84%
viability, T/C (second compound 1 µM, first compound 0.000316 µM): 51.5%
viability, T/C (second compound 1 µM, first compound 0.001 µM): 51.6%
viability, T/C (second compound 1 µM, first compound 0.00316 µM): 23.6%
viability, T/C (second compound 1 µM, first compound 0.01 µM): 6.16%
viability, T/C [13]: 4.68%
viability, T/C [14]: 4.9%
viability, T/C (second compound 3.16 µM, first compound 0.000316 µM): 71.6%
viability, T/C (second compound 3.16 µM, first compound 0.001 µM): 50.8%
viability, T/C (second compound 3.16 µM, first compound 0.00316 µM): 26%
viability, T/C (second compound 3.16 µM, first compound 0.01 µM): 6.88%
viability, T/C [19]: 5.03%
viability, T/C [20]: 5.16%
viability, T/C (second compound 10 µM, first compound 0.000316 µM): 48.5%
viability, T/C (second compound 10 µM, first compound 0.001 µM): 52.2%
viability, T/C (second compound 10 µM, first compound 0.00316 µM): 19.9%
viability, T/C (second compound 10 µM, first compound 0.01 µM): 6.25%
viability, T/C [25]: 5.22%
viability, T/C [26]: 4.95%

Nc1ncn(C2CC(O)C(CO)S2)c(=O)n1 (stereo not given) + NC1CC1c1ccc(-c2cccc(O)c2)cc1
IC50 (second compound 0.1 µM): < 0.949 nM
IC50 (second compound 0.316 µM): < 0.949 nM
IC50 (second compound 1 µM): < 0.949 nM
IC50 (second compound 3.16 µM): < 0.949 nM
IC50 (second compound 10 µM): < 0.949 nM
viability, T/C (second compound 0.1 µM, first compound 0.000949 µM): 35.2%
viability, T/C (second compound 0.1 µM, first compound 0.003 µM): 20.8%
viability, T/C [31]: 9.36%
viability, T/C [32]: 4.53%
viability, T/C [33]: 4.25%
viability, T/C [34]: 5.78%
viability, T/C (second compound 0.316 µM, first compound 0.000949 µM): 35.8%
viability, T/C (second compound 0.316 µM, first compound 0.003 µM): 16.6%
viability, T/C [35]: 8.03%
viability, T/C [36]: 5.12%
viability, T/C [37]: 5.19%
viability, T/C [38]: 5.71%
viability, T/C (second compound 1 µM, first compound 0.000949 µM): 40.5%
viability, T/C (second compound 1 µM, first compound 0.003 µM): 17.2%
viability, T/C [39]: 8.75%
viability, T/C [40]: 4.16%
viability, T/C [41]: 4.46%
viability, T/C [42]: 6.59%
viability, T/C (second compound 3.16 µM, first compound 0.000949 µM): 31.3%
viability, T/C (second compound 3.16 µM, first compound 0.003 µM): 15.9%
viability, T/C [43]: 8.59%
viability, T/C [44]: 5.64%
viability, T/C [45]: 5.95%
viability, T/C [46]: 4.49%
viability, T/C (second compound 10 µM, first compound 0.000949 µM): 32.3%
viability, T/C (second compound 10 µM, first compound 0.003 µM): 16.6%
viability, T/C [47]: 8.49%
viability, T/C [48]: 6.66%
viability, T/C [49]: 5.5%
viability, T/C [50]: 6.65%
